Legend:
[1] = target: T1, Peroxisome proliferator-activated receptor alpha (Homo sapiens, UniProt Q07869); assay: Agonist activity at GAL4-tagged PPARalpha ligand-binding domain (unknown origin) expressed in HEK293T cells incubated for 16 to 19 hrs by beta-lactamase reporter gene assay; format: cell-based, HEK-293T
T1 sequence (Q07869 whole entry): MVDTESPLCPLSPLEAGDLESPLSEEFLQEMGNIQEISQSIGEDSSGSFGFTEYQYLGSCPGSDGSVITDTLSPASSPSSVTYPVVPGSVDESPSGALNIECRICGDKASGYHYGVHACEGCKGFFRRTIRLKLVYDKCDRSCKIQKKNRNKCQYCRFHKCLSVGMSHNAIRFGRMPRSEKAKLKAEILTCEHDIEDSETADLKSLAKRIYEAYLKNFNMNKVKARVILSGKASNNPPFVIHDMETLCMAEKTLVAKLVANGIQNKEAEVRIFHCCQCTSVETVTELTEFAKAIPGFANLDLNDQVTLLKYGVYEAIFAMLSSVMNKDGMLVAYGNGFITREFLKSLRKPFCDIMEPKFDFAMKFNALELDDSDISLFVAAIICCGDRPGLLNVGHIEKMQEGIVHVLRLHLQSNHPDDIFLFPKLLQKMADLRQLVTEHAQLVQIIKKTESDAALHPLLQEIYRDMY

[2] = target: T2, Peroxisome proliferator-activated receptor delta (Homo sapiens, UniProt Q03181); assay: Agonist activity at GAL4-tagged PPARdelta (unknown origin)
T2 sequence (Q03181 whole entry): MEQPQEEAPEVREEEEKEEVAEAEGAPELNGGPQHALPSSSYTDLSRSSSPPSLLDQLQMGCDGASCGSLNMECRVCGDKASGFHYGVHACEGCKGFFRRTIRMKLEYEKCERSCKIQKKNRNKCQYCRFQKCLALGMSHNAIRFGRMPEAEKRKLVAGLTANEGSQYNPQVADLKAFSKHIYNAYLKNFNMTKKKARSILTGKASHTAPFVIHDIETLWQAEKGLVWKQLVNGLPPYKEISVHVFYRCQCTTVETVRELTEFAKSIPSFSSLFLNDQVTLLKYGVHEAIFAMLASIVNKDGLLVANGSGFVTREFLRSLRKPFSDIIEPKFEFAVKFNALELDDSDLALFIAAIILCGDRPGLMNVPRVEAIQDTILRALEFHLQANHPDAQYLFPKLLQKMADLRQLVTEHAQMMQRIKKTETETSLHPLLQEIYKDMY

[3] = target: T3, Peroxisome proliferator-activated receptor gamma (Homo sapiens, UniProt P37231); assay: Agonist activity at GAL4-tagged PPARgamma (unknown origin)
T3 sequence (P37231 whole entry): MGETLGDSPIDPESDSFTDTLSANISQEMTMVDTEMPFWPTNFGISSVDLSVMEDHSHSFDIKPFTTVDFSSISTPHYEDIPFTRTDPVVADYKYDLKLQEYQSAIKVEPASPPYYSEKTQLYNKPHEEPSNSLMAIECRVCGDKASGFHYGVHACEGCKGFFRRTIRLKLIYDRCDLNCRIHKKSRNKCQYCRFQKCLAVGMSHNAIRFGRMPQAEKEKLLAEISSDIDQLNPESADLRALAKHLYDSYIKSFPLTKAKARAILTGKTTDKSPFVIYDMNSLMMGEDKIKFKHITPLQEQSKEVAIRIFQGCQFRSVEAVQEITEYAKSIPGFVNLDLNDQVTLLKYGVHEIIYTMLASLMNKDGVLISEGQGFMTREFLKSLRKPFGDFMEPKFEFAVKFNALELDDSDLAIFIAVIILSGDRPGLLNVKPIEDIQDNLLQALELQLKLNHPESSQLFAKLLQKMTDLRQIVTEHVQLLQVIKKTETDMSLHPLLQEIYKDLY

| SMILES | EC50 [1] [µM] | EC50 [2] [µM] | EC50 [3] [µM] |
| --- | --- | --- | --- |
| CCCCCOC(=O)c1ccc(NC(=O)c2cccc(NC(=O)c3ccccc3C(=O)O)c2)cc1 | 0.0011 |  |  |
| Cc1c(C(=O)O)cccc1-c1ccc(/C=C2/SC(=O)N(CC(=O)Nc3ccc(F)cc3)C2=O)o1 | 0.00016 |  |  |
| CCOC(=O)C1=C(Nc2ccc(OCC)cc2)S/C(=C/c2ccc(OCC(=O)O)c(OC)c2)C1=O | 0.0121 |  |  |
| CC[C@@H](Oc1cccc(CN(CCCOc2ccc(OC)cc2)c2nc3ccccc3o2)c1)C(=O)O [PEMAFIBRATE] |  | 10 | 1.7 |

Further lines, results first:

| EC50 [1] [µM] | EC50 [2] [µM] | EC50 [3] [µM] | SMILES |
| --- | --- | --- | --- |
|  | 13 | 6.6 | Cc1nc(-c2ccc(Cl)cc2)sc1C(=O)N[C@H]1CCCN(c2cccc(C(=O)O)c2)C1 |
|  | 11 | 3.1 | Cc1ccc(-c2nc(C)c(C(=O)N[C@H]3CCCN(c4cccc(C(=O)O)c4)C3)s2)cc1 |
| 0.004 | 25 | 25 | Cc1nc(-c2cccc(C(F)(F)F)c2)sc1CNCc1ccc(OC(C)(C)C(=O)O)cc1 |
